Test results: ChEMBL document CHEMBL4725442, “Exception That Proves the Rule: Investigation of Privileged Stereochemistry in Designing Dopamine DR Bitopic Agonists” (ACS Med Chem Lett, 2020)

Tests used:
Format in all cases: cell-based
D(1A) dopamine receptor [1] = target: T1, D(1A) dopamine receptor (Homo sapiens, UniProt P21728); experiment: Displacement of [3H]-SCH23390 from human D1 receptor expressed in HEK293 cells at 100 uM after 60 mins by microbeta counting based assay relative to control
D(1A) dopamine receptor [2] = target: T1, D(1A) dopamine receptor; experiment: Displacement of [3H]-SCH23390 from human D1 receptor expressed in HEK293 cells after 60 mins by microbeta counting based assay
Mu-type opioid receptor [3] = target: T2, Mu-type opioid receptor (Homo sapiens, UniProt P35372); experiment: Displacement of [3H]-DAMGO from human MOR expressed in HEK293 cells after 60 mins by microbeta counting based assay
Mu-type opioid receptor [4] = target: T2, Mu-type opioid receptor; experiment: Displacement of [3H]-DAMGO from human MOR expressed in HEK293 cells at 100 uM after 60 mins by microbeta counting based assay relative to control
D(2) dopamine receptor = D(2) dopamine receptor (Homo sapiens, UniProt P14416); experiment: Displacement of [3H]-(R)-(+)-7-OH-DPAT from human D2L receptor expressed in HEK293 cells after 90 mins by microbeta counting based assay
D(3) dopamine receptor = D(3) dopamine receptor (Homo sapiens, UniProt P35462); experiment: Displacement of [3H]-(R)-(+)-7-OH-DPAT from human D3 receptor expressed in HEK293 cells after 90 mins by microbeta counting based assay
D(3) dopamine receptor, sequence (P35462 whole entry): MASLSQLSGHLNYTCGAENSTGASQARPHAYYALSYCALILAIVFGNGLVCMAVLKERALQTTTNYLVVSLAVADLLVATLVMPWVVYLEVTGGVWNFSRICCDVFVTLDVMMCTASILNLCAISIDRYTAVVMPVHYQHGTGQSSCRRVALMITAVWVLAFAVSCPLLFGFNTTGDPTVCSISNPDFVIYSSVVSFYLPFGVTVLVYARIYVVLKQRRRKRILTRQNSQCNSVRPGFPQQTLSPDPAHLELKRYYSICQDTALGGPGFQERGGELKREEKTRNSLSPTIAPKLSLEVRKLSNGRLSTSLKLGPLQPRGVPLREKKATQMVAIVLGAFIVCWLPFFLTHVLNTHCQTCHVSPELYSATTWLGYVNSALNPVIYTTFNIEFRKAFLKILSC

T2 sequence (P35372 whole entry): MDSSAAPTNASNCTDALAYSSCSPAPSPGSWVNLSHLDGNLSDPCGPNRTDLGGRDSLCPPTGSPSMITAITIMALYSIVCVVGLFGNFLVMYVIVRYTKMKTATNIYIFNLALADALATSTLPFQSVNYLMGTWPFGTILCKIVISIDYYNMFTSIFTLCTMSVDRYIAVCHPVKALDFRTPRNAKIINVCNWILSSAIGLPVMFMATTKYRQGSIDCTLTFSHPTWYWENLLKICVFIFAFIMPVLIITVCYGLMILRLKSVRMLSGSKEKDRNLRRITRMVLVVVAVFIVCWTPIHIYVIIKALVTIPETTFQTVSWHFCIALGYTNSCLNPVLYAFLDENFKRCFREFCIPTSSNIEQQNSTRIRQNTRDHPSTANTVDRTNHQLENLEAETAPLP
T1 sequence (P21728 whole entry): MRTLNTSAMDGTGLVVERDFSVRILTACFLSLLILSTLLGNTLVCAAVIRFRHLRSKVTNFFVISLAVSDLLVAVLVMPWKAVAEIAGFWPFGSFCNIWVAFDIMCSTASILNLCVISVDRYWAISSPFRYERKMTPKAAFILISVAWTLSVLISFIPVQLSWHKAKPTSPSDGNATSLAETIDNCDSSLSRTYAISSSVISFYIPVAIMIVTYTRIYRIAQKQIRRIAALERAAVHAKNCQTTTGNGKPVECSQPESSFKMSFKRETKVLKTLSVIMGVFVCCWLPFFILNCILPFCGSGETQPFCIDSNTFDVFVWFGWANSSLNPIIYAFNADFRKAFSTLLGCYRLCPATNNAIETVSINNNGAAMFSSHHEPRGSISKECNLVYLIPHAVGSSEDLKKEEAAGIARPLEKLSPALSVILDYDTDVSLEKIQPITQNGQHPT
D(2) dopamine receptor, sequence (P14416 whole entry): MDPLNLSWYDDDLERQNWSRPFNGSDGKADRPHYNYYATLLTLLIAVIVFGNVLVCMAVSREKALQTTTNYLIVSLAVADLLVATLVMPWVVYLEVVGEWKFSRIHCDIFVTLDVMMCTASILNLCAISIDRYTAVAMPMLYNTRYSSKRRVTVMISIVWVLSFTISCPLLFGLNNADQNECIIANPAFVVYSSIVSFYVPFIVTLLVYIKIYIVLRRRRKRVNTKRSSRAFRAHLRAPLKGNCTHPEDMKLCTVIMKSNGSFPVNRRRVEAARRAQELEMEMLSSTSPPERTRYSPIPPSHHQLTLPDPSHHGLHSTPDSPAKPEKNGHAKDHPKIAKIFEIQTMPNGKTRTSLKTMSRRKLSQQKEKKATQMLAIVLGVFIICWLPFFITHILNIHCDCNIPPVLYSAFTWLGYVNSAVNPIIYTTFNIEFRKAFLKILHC

For `C[C@H]1CO[C@@H](c2ccc(N)nc2)CN1CC(O)CCNC(=O)c1cc2ccccc2[nH]1` (stereo partly specified), the inhibition (D(1A) dopamine receptor [1]) was under 50% and the Ki (D(1A) dopamine receptor [2]) was over 100 µM.

`CCCN1CCO[C@@H]2c3cc(O)ccc3OC[C@H]21` showed an inhibition (D(1A) dopamine receptor [1]) of under 50%.

For `CCCN1CCO[C@H]2c3cc(O)ccc3OC[C@@H]21`, the inhibition (D(1A) dopamine receptor [1]) was under 50%.

Work on `CCCN1CC(c2ccc(N)nc2)OC[C@@H]1C` (mixture of isomers) yielded an inhibition (D(1A) dopamine receptor [1]) of under 50%, a Ki (Mu-type opioid receptor [3]) of over 100 µM and an inhibition (Mu-type opioid receptor [4]) of under 50%. For the same compound, the Ki (D(1A) dopamine receptor [2]) was over 100 µM.

`C[C@H]1CO[C@@H](c2ccc(N)nc2)CN1CC[C@H]1CC[C@H](NC(=O)c2cc3ccccc3[nH]2)CC1` (relative stereo) showed an inhibition (D(1A) dopamine receptor [1]) of under 50%, a Ki (Mu-type opioid receptor [3]) of 21.9 µM and a Ki (D(1A) dopamine receptor [2]) of over 100 µM.

`O=C(NCCCCN1CCO[C@H]2c3cc(O)ccc3OC[C@@H]21)c1cc2ccccc2[nH]1` (relative stereo) gave a Ki (D(2) dopamine receptor) of 5.88 µM, an inhibition (D(1A) dopamine receptor [1]) of under 50% and a Ki (D(3) dopamine receptor) of 5.54 µM. It also gave a Ki (Mu-type opioid receptor [3]) of 12.4 µM and a Ki (D(1A) dopamine receptor [2]) of over 100 µM.

`O=C(NCCCCN1CCO[C@@H]2c3cc(O)ccc3OC[C@@H]21)c1cc2ccccc2[nH]1` (relative stereo) gave a Ki (D(2) dopamine receptor) of 9.42 µM, an inhibition (D(1A) dopamine receptor [1]) of under 50% and a Ki (D(3) dopamine receptor) of 13.8 µM. It also gave a Ki (Mu-type opioid receptor [3]) of 12.3 µM and a Ki (D(1A) dopamine receptor [2]) of over 100 µM.
